From patent US20030175735A1, “Recombinant adenylcyclase and use thereof for screening molecules with proteolytic activity” (priority 2000, published 2003)

What was measured:
HIV protease mutant B3 [1] = experiment: system in cis: phenotype of DHT1 with pKACB3; format: cell-based
Protocol: (§1) The bacteria are cultured in Luria-Bertani (LB) liquid or agar (15 g/l agar) medium. Their ability to ferment sugars is tested on McConkey agar medium containing 1% of maltose (Miller, 1972, Experiments in Molecular Genetics, Cold Spring Harbor Lab. Press, Cold Spring Harbor, N.Y.). The antibiotics are used at the following concentrations: ampicillin: 100 μg/ml and kanamycin: 50 μg/ml. The protease inhibitors, indinavir (Crixivan, Merck) and saquinavir (Invirase, Roche) are dissolved, respectively, in ethanol and in water (final concentration 20 mM) and then diluted in the culture media at the concentrations indicated.
(§2) For this study, the B1, B3, V1 and V2 proteases are inserted between amino acids 224 and 225 of the adenyl cyclase and the chimeric proteins obtained are expressed in the DHT1 strain (plasmids pKACB1, pKACB3, pKACV1 and pKACV2).

HIV protease mutant V2 [2] = experiment: system in cis: phenotype of DHT1 with pKACV2; format: cell-based
Protocol: as §1, §2

HIV protease mutant V2 [3] = format: cell-based
Protocol: as §1
The DNA encoding the modified proteases was cloned into the vector of pUC19 (example 2) and the plasmids obtained were cotransformed with pKACp5 into the DHT1 strain. The phenotype of the transformed bacteria is observed on McConkey maltose medium containing or not containing protease inhibitors.

HIV protease mutant B1 = conditions: modified protease B1
Text: (§3) The mutations are described relative to the amino acid sequence (1-99) of the reference virus protease (V: Val; I: Ile; M: Met; T: Thr; L: Leu and P: Pro). The level of resistance of the mutants corresponds to the relative increase (compared to the wild-type protease) in the concentration of inhibitors required to inhibit 50% of the viral replication.

HIV protease mutant B3 [4] = conditions: modified protease B3 (M46I, V77I, V82T)
Text: as §3

wild-type HIV protease [5] = molecular target: wild-type HIV protease (Human immunodeficiency virus type 1 group M subtype B, UniProt P04585); format: cell-based
Protocol: as §1
In order to test this system, a recombinant protein according to the invention, ACp5, into which is inserted, between amino acids 224 and 225 of the adenyl cyclase, the p5 cleavage site of the HIV protease, was generated. The plasmid expressing this protein (pKACp5, example 2) was cotransformed into an E. coli cya strain, with a compatible plasmid carrying or not carrying the wild-type HIV protease (pUCVIH or pUC19).

wild-type HIV protease [6] = format: cell-based; conditions: for phenotype in the presence of inhibitor: Cya− in the absence of inhibitor
Protocol: as §1
A chimeric protein (ACPr) was therefore constructed (example 2), into which is inserted, between amino acids 224 and 225 of the adenyl cyclase, the HIV protease (99 residues) and its two cleavage sequences p5 and p6 (each one 8 amino acids) .

HIV protease mutant V1 = conditions: modified protease V1 (L63P)
Text: as §3

HIV protease mutant V2 [7] = conditions: modified protease V2 (L10I, L63P, L90M)
Text: as §3

Compound	phenotype at 10 μM (HIV protease mutant B3 [1]; 10 μM saquinavir)	phenotype on medium containing 20 μM of saquinavir (HIV protease mutant V2 [2])	concentration needed for the bacteria to become Cya+ (HIV protease mutant V2 [3]) [µM]	Resistance to inhibitor: relative increase (compared to the wild-type protease) in the concentration required to inhibit 50% of the viral replication (HIV protease mutant B1) [X]	Resistance to inhibitor: relative increase (compared to the wild-type protease) in the concentration required to inhibit 50% of the viral replication (HIV protease mutant B3 [4]) [X]	concentration needed for the bacteria to become Cya+ (wild-type HIV protease [5]) [µM]	phenotype on medium containing 20 μM of saquinavir (wild-type HIV protease [6]; pKACPr, system in cis)	phenotype at 10 μM (wild-type HIV protease [6]; pKACPr, system in cis, 10 μM saquinavir)	phenotype in the presence of inhibitor (wild-type HIV protease [6]; pKACPr, system in cis)	Resistance to inhibitor: relative increase (compared to the wild-type protease) in the concentration required to inhibit 50% of the viral replication (HIV protease mutant V1) [X]	Resistance to inhibitor: relative increase (compared to the wild-type protease) in the concentration required to inhibit 50% of the viral replication (HIV protease mutant V2 [7]) [X]	concentration up to which the bacteria have a Cya− phenotype (HIV protease mutant B3 [1]) [µM]	phenotype on medium containing 100 μM indinavir (HIV protease mutant V2 [2])	concentration up to which the bacteria have a Cya− phenotype (wild-type HIV protease [6]) [µM]	phenotype on medium containing 100 μM indinavir (wild-type HIV protease [6]; pKACPr, system in cis)
CC(C)(C)NC(=O)[C@@H]1C[C@@H]2CCCC[C@@H]2CN1C[C@@H](O)[C@H](Cc1ccccc1)NC(=O)[C@H](CC(N)=O)NC(=O)c1ccc2ccccc2n1 [saquinavir]	Cya^−	Cya^−	20	1	3	10	red colonies	red	Cya^+	1	53				
CC(C)(C)NC(=O)[C@@H]1CN(Cc2cccnc2)CCN1C[C@@H](O)C[C@@H](Cc1ccccc1)C(=O)N[C@H]1c2ccccc2C[C@H]1O [indinavir]			50	1	13	50			Cya^+	1	4	100	Cya^−	50	red colonies
